# Tests used:
# HepG2 = assay: GSK_TB: The cytotoxicity against HepG2 cells expressed as IC50; format: functional, cell-based; settings: Homo sapiens
# [1] = system: Mycobacterium tuberculosis H37Rv; assay: GSK_TB: Growth inhibition of non-replicating Mycobacterium tuberculosis (pXC50); format: functional, ATCC25618
# [2] = system: Mycobacterium tuberculosis H37Rv; assay: GSK_TB: Minimum inhibitory concentration against H37Rv stain of Mycobacterium tuberculosis using MABA method; format: functional; settings: ATCC25618
# [3] = GSK_TB: Lipophilicity, log D of the compound at pH 7.4 by ChromlogD analysis; format: physicochemical; settings: buffer
# [4] = system: Mycobacterium tuberculosis H37Rv; assay: GSK_TB: Inhibition of the intracellular growth of Mycobacterium tuberculosis (pXC50); format: functional, ATCC25618
# [5] = GSK_TB: Kinetic solubility of the compound in phosphate buffered saline at pH 7.4 after 1 hr by CLND method; format: physicochemical
# [6] = GSK_TB: AVG_CHROM_LOGP; format: physicochemical
Structure (SMILES),IC50 (HepG2) [µM],pXC50 [1],MIC [2] [µM],Lipophilicity [3],pXC50 [4],solubility kinetic at 1 h [5] [µg/mL],Lipophilicity [6]
COc1ccc2nccc(NC(=O)C3CCN(CCc4ccc(Cl)cc4)CC3)c2n1,> 100,5.1,0.2,5.49,6.6,4,
FC(F)(F)c1nnc2ccc(Sc3nnc(-c4ccco4)o3)nn12,32,4.5,5.6,3.78,5.4,125,3.8715
N#Cc1cc(C(F)(F)F)c2nc(C(=O)NCc3cccs3)c(Cl)n2c1,> 100,5.2,10,5.21,6.1,72,5.4382
CN(Cc1ccc(Cl)cc1)C(=O)CCc1nc2ccccc2oc1=O,> 100,4.9,3.9,5.86,<4.3,127,6.0093
Nc1ccccc1Nc1ccc(Cl)cc1,79,4.5,2,5.76,7.8,59,5.9114
Cc1ccc2oc(SCC(=O)Nc3nccs3)nc2n1,40,,5.6,3.01,<4.3,31,3.0066
O=C(Nc1nc(-c2ccccn2)cs1)N1CCC(Cc2ccc(F)cc2)CC1,25,,10,6.09,6.1,4,6.3357
Nc1ccc(S(=O)(=O)Nc2ccnn2-c2ccccc2)cc1 [SULFAPHENAZOLE],> 100,,10,1.08,<4.3,≥ 167,2.8435
CNc1nc(SC)nnc1-c1cccc(Cl)c1Cl,> 100,,2.5,4.94,6.1,≥ 85,4.9976
CC(C)N(C(=O)CNc1ccccc1Nc1ccccc1)c1ccccc1,50,,5.6,7.73,5.7,8,8.1308
N#Cc1ncn(-c2ccc3nnc(C(F)(F)F)n3n2)n1,> 100,,5,3.31,<4.3,≥ 105,3.3167
CCCCc1ccc(C(=O)Nc2nnc(S(=O)(=O)CCCC)s2)nc1,20,,10,6.01,5.6,1.5,7.3965
O=C(NCc1ccco1)N1CCN(Cc2ccc(Cl)s2)CC1,> 100,,2,4.82,5.6,98,4.8996
NC(=O)c1ccc(CN(C2CC2)S(=O)(=O)c2ccccc2F)cc1,> 100,,3.75,3.75,6.7,133,3.79
COc1ccc(CCNC(=O)C2(n3cnnn3)CCCCC2)cc1,> 100,,8,2.43,5.7,≥ 226,3.1698
Nc1ccc(C(O)CNCCc2ccccc2)cc1O (configuration not stated),50,,2.9,0.97,4.97,53,1.7338
COc1ccc(-c2nnc3sc(Cc4csc(C)n4)nn23)cc1,> 100,,2.5,3.97,5.7,95,4.0511
c1ccc(-c2ncc(-c3ccc(OCCCn4ccnc4)cc3)s2)cc1,25,,5,6.42,5.3,3,6.7437
